Assay results reported in the NIST ThermoML archive (doi:10.1021/je034022n).
Numbers after ± are expanded uncertainties.

Details: 101.33 kPa, Liquid

Row | Compound | mass density (298.15 K) | speed of sound (298.15 K) | mass density (303.15 K) | mass density (308.15 K) | speed of sound (308.15 K) | mass density (313.15 K)
1 | Cc1ccccc1 [toluene] | 862.2 ± 1.4 kg/m3 | 1304 ± 6 m/s | 857.55 ± 1.4 kg/m3 | 852.86 ± 1.4 kg/m3 | 1262 ± 5 m/s | 848.16 ± 1.5 kg/m3
2 | c1ccccc1 [benzene] | 873.61 ± 1.3 kg/m3 | 1299 ± 6 m/s | 868.29 ± 1.3 kg/m3 | 862.96 ± 1.4 kg/m3 | 1260 ± 5 m/s | 857.97 ± 1.4 kg/m3
3 | CCCCOCCO [2-butoxyethan-1-ol] | 896.25 ± 1.2 kg/m3 | 1304 ± 6 m/s | 892.03 ± 1.2 kg/m3 | 888.91 ± 1.2 kg/m3 | 1285 ± 6 m/s | 883.4 ± 1.2 kg/m3
4 | Cc1ccc(C)cc1 [1,4-dimethylbenzene] | 856.62 ± 1.4 kg/m3 | 1308 ± 6 m/s | 852.25 ± 1.4 kg/m3 | 847.88 ± 1.5 kg/m3 | 1276 ± 6 m/s | 843.64 ± 1.5 kg/m3
5 | C=C(C)C(=O)OC [methyl methacrylate] | 937.63 ± 0.92 kg/m3 | 1181 ± 5 m/s | 931.74 ± 0.96 kg/m3 | 925.74 ± 1 kg/m3 | 1153 ± 5 m/s | 920.26 ± 1 kg/m3
